Tested on: 653999-131-R-J2-PDC complex spheroids, growth inhibition
Assay: Anticancer human tumor 653999-131-R-J2-PDC patient-derived lung adenocarcinoma cell line growth inhibition [RAS]
Conditions: for IC50: curve of first compound; for viability, T/C: stronger effect = lower value
Summary of the method: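 Multi-cell-type spheroids: tumor cells plus HUVEC endothelial cells and mesenchymal stem cells. RAS-pathway inhibitors were combined with targeted agents, each dosed in half-log steps down from clinical Cmax, or from 10 microM when Cmax was unknown.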

[1] = second compound 0.00316 µM, first compound 0.0316 µM
[2] = second compound 0.00316 µM, first compound 0.1 µM
[3] = second compound 0.00316 µM, first compound 0.316 µM
[4] = second compound 0.00316 µM, first compound 1 µM
[5] = second compound 0.00316 µM, first compound 3.16 µM
[6] = second compound 0.00316 µM, first compound 10 µM
[7] = second compound 0.01 µM, first compound 0.0316 µM
[8] = second compound 0.01 µM, first compound 0.1 µM
[9] = second compound 0.01 µM, first compound 0.316 µM
[10] = second compound 0.01 µM, first compound 1 µM
[11] = second compound 0.01 µM, first compound 3.16 µM
[12] = second compound 0.01 µM, first compound 10 µM
[13] = second compound 0.0316 µM, first compound 0.0316 µM
[14] = second compound 0.0316 µM, first compound 0.1 µM
[15] = second compound 0.0316 µM, first compound 0.316 µM
[16] = second compound 0.0316 µM, first compound 1 µM
[17] = second compound 0.0316 µM, first compound 3.16 µM
[18] = second compound 0.0316 µM, first compound 10 µM
[19] = second compound 0.1 µM, first compound 0.0316 µM
[20] = second compound 0.1 µM, first compound 0.1 µM
[21] = second compound 0.1 µM, first compound 0.316 µM
[22] = second compound 0.1 µM, first compound 1 µM
[23] = second compound 0.1 µM, first compound 3.16 µM
[24] = second compound 0.1 µM, first compound 10 µM
[25] = second compound 0.316 µM, first compound 0.0316 µM
[26] = second compound 0.316 µM, first compound 0.1 µM
[27] = second compound 0.316 µM, first compound 0.316 µM
[28] = second compound 0.316 µM, first compound 1 µM
[29] = second compound 0.316 µM, first compound 3.16 µM
[30] = second compound 0.316 µM, first compound 10 µM
[31] = second compound 1 µM, first compound 0.0316 µM
[32] = second compound 1 µM, first compound 0.1 µM
[33] = second compound 1 µM, first compound 0.316 µM
[34] = second compound 1 µM, first compound 1 µM
[35] = second compound 1 µM, first compound 3.16 µM
[36] = second compound 1 µM, first compound 10 µM
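Further: spheroids exposed to the agents for seven days before the readout.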

## CC1(O)CCCC1n1c(=O)c(C(F)F)cc2cnc(NC3CCN(S(C)(=O)=O)CC3)nc21 (stereo unspecified) + C=CC(=O)N1CCN(c2nc(OCC3CCCN3C)nc3c(F)c(-c4nc(N)cc(C)c4C(F)(F)F)c(Cl)cc23)C(C)C1
Second compound 0.00316 µM
  IC50: 5.56 µM
Second compound 0.01 µM
  IC50: 5.34 µM
Second compound 0.0316 µM
  IC50: 5.2 µM
Second compound 0.1 µM
  IC50: 5.59 µM
Second compound 0.316 µM
  IC50: 5.13 µM
Second compound 1 µM
  IC50: 6.26 µM
[1]
  viability, T/C: 74.3%
[2]
  viability, T/C: 63.4%
[3]
  viability, T/C: 57.5%
[4]
  viability, T/C: 63.5%
[5]
  viability, T/C: 75.9%
[6]
  viability, T/C: 32.5%
[7]
  viability, T/C: 82.5%
[8]
  viability, T/C: 65.5%
[9]
  viability, T/C: 56.6%
[10]
  viability, T/C: 71.9%
[11]
  viability, T/C: 68.8%
[12]
  viability, T/C: 27.5%
[13]
  viability, T/C: 77.6%
[14]
  viability, T/C: 57.2%
[15]
  viability, T/C: 63.4%
[16]
  viability, T/C: 63.2%
[17]
  viability, T/C: 68.5%
[18]
  viability, T/C: 29%
[19]
  viability, T/C: 78.4%
[20]
  viability, T/C: 71.7%
[21]
  viability, T/C: 54.4%
[22]
  viability, T/C: 64.7%
[23]
  viability, T/C: 76.3%
[24]
  viability, T/C: 30.7%
[25]
  viability, T/C: 86.3%
[26]
  viability, T/C: 65.6%
[27]
  viability, T/C: 67.2%
[28]
  viability, T/C: 69.5%
[29]
  viability, T/C: 66.4%
[30]
  viability, T/C: 27.8%
[31]
  viability, T/C: 78.3%
[32]
  viability, T/C: 55.9%
[33]
  viability, T/C: 71%
[34]
  viability, T/C: 64.2%
[35]
  viability, T/C: 68.4%
[36]
  viability, T/C: 38.2%

## CCN1CCN(Cc2ccc(Nc3ncc(F)c(-c4cc(F)c5nc(C)n(C(C)C)c5c4)n3)nc2)CC1 + C=CC(=O)N1CCN(c2nc(OCC3CCCN3C)nc3c(F)c(-c4nc(N)cc(C)c4C(F)(F)F)c(Cl)cc23)C(C)C1
Second compound 0.00316 µM
  IC50: > 1 µM
Second compound 0.01 µM
  IC50: > 1 µM
Second compound 0.0316 µM
  IC50: > 1 µM
Second compound 0.1 µM
  IC50: > 1 µM
Second compound 0.316 µM
  IC50: > 1 µM
Second compound 1 µM
  IC50: > 1 µM
Second compound 0.00316 µM, first compound 0.00316 µM
  viability, T/C: 90.4%
Second compound 0.00316 µM, first compound 0.01 µM
  viability, T/C: 79.5%
[1]
  viability, T/C: 68.9%
[2]
  viability, T/C: 61.7%
[3]
  viability, T/C: 80%
[4]
  viability, T/C: 75.4%
Second compound 0.01 µM, first compound 0.00316 µM
  viability, T/C: 93.4%
Second compound 0.01 µM, first compound 0.01 µM
  viability, T/C: 84.1%
[7]
  viability, T/C: 69.3%
[8]
  viability, T/C: 66.9%
[9]
  viability, T/C: 67.7%
[10]
  viability, T/C: 69.7%
Second compound 0.0316 µM, first compound 0.00316 µM
  viability, T/C: 106%
Second compound 0.0316 µM, first compound 0.01 µM
  viability, T/C: 87.1%
[13]
  viability, T/C: 75.8%
[14]
  viability, T/C: 65.3%
[15]
  viability, T/C: 68.1%
[16]
  viability, T/C: 81.7%
Second compound 0.1 µM, first compound 0.00316 µM
  viability, T/C: 111%
Second compound 0.1 µM, first compound 0.01 µM
  viability, T/C: 84%
[19]
  viability, T/C: 67.6%
[20]
  viability, T/C: 73.7%
[21]
  viability, T/C: 63%
[22]
  viability, T/C: 67.1%
Second compound 0.316 µM, first compound 0.00316 µM
  viability, T/C: 84.8%
Second compound 0.316 µM, first compound 0.01 µM
  viability, T/C: 98.6%
[25]
  viability, T/C: 78.2%
[26]
  viability, T/C: 69.4%
[27]
  viability, T/C: 70.7%
[28]
  viability, T/C: 70.5%
Second compound 1 µM, first compound 0.00316 µM
  viability, T/C: 94%
Second compound 1 µM, first compound 0.01 µM
  viability, T/C: 81.3%
[31]
  viability, T/C: 63.4%
[32]
  viability, T/C: 69.7%
[33]
  viability, T/C: 77.6%
[34]
  viability, T/C: 102%

## C[C@@H](NC(=O)c1ncnc(N)c1Cl)c1ncc(C(=O)Nc2cc(C(F)(F)F)c(Cl)cn2)s1 + C=CC(=O)N1CCN(c2nc(OCC3CCCN3C)nc3c(F)c(-c4nc(N)cc(C)c4C(F)(F)F)c(Cl)cc23)C(C)C1
Second compound 0.00316 µM
  IC50: > 10 µM
Second compound 0.01 µM
  IC50: > 10 µM
Second compound 0.0316 µM
  IC50: > 10 µM
Second compound 0.1 µM
  IC50: > 10 µM
Second compound 0.316 µM
  IC50: > 10 µM
Second compound 1 µM
  IC50: > 10 µM
[1]
  viability, T/C: 120%
[2]
  viability, T/C: 85%
[3]
  viability, T/C: 101%
[4]
  viability, T/C: 81%
[5]
  viability, T/C: 88.5%
[6]
  viability, T/C: 81%
[7]
  viability, T/C: 127%
[8]
  viability, T/C: 108%
[9]
  viability, T/C: 89%
[10]
  viability, T/C: 93.5%
[11]
  viability, T/C: 98%
[12]
  viability, T/C: 71.3%
[13]
  viability, T/C: 116%
[14]
  viability, T/C: 90.3%
[15]
  viability, T/C: 93.5%
[16]
  viability, T/C: 89.9%
[17]
  viability, T/C: 84.3%
[18]
  viability, T/C: 73.2%
[19]
  viability, T/C: 105%
[20]
  viability, T/C: 95.2%
[21]
  viability, T/C: 101%
[22]
  viability, T/C: 94.3%
[23]
  viability, T/C: 89.5%
[24]
  viability, T/C: 84.2%
[25]
  viability, T/C: 107%
[26]
  viability, T/C: 96.1%
[27]
  viability, T/C: 110%
[28]
  viability, T/C: 97.6%
[29]
  viability, T/C: 85.1%
[30]
  viability, T/C: 86.1%
[31]
  viability, T/C: 90.9%
[32]
  viability, T/C: 96.7%
[33]
  viability, T/C: 104%
[34]
  viability, T/C: 99.5%
[35]
  viability, T/C: 87.5%
[36]
  viability, T/C: 82.2%

From PubChem BioAssay AID2060886 (Molecular Pharmacology Branch, DTP, NCI, 2025)
